The results in this text go back to ChEMBL document CHEMBL1132396, “Potent, orally bioavailable somatostatin agonists: good absorption achieved by urea backbone cyclization” (Bioorg Med Chem Lett, 1999).

The structures appear in SMILES notation. Several values for one entry are separate records, joined by “and”; a condition that tells them apart may be missing. Equal values may be shown once.

For data set [1], the target named is Somatostatin receptor type 2 (Mus musculus, UniProt P30875). Description: In vitro binding affinity was evaluated against mouse Somatostatin receptor type 2 (mSSTR-2).
Somatostatin receptor type 2 (Mus musculus, UniProt P30875), sequence (P30875 whole entry): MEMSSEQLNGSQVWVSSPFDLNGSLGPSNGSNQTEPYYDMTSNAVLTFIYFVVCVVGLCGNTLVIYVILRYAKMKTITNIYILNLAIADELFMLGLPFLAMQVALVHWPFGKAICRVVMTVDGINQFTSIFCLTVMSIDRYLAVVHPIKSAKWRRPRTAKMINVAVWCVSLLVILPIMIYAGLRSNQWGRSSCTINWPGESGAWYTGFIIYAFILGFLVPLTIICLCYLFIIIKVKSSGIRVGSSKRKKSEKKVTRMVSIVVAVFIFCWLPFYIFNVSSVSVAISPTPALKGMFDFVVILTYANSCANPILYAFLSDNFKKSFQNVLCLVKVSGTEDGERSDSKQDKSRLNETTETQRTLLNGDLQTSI
Data set [2] addresses T1, Somatostatin receptor type 2 (Homo sapiens, UniProt P30874). Description: In vitro binding affinity was evaluated against human Somatostatin receptor type 2 (hSSTR-2).
Data set [3] has as its target T1, Somatostatin receptor type 2. Description: In vitro binding affinity was evaluated against human Somatostatin receptor type 2 in experiment 1.
For data set [4] the target is unchanged. Briefly: In vitro binding affinity was evaluated against human Somatostatin receptor type 2 in experiment 2.
The nature of data set [5]: Bioavailability. Type of data set: ADME, organism-based, Canis lupus familiaris. To be noted: beagle, dog, in vivo.
The nature of data set [6]: Area under curve after 2 mpk peroral administration to beagles. It is filed as ADME, Canis lupus familiaris. The note with it: Beagle, dog, in vivo, po, 2 mg/kg.
A short description of data set [7]: Bioavailability after 2 mpk peroral administration to beagles. It is filed as ADME, organism-based, Canis lupus familiaris. The note with it: Beagle, dog, in vivo, po, 2 mg/kg.
Data set [8] in a line: Cmax value after 2 mpk peroral administration to beagles. It is filed as ADME, organism-based, Canis lupus familiaris. More on the design: dose 2 mpk, route oral. To be noted: Beagle, dog, in vivo, po, 2 mg/kg.
Data set [9] deals with Somatostatin receptor type 1 (Homo sapiens, UniProt P30872). Briefly: In vitro binding affinity was evaluated against human Somatostatin receptor type 1 (hSSTR-1).
Somatostatin receptor type 1, sequence (P30872 whole entry): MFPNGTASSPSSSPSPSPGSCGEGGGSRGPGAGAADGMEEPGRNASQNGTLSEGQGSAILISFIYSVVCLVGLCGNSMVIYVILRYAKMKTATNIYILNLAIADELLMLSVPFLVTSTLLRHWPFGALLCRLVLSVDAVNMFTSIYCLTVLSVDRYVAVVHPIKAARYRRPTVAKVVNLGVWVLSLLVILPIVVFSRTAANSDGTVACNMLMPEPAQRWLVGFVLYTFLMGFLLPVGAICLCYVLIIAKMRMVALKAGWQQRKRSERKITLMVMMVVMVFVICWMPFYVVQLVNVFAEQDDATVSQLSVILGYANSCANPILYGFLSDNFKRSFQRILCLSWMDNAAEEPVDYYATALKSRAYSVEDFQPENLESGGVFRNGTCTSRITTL
The target in data set [10] is Somatostatin receptor type 3 (Homo sapiens, UniProt P32745). Briefly: In vitro binding affinity was evaluated against human Somatostatin receptor type 3 (hSSTR-3).
Somatostatin receptor type 3, sequence (P32745 whole entry): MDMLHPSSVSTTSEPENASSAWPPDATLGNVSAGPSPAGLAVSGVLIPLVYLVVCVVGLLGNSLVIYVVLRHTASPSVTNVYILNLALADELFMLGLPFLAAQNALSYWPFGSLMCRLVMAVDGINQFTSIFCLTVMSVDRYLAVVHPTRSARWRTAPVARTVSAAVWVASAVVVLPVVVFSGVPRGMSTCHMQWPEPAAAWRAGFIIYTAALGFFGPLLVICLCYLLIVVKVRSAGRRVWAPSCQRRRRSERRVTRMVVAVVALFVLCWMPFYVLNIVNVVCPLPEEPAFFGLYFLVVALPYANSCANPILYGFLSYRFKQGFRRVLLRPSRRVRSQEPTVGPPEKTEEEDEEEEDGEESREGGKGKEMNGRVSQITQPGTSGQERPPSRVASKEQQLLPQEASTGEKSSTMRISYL
The target of data set [11] is Somatostatin receptor type 4 (Homo sapiens, UniProt P31391). Description: In vitro binding affinity was evaluated against human Somatostatin receptor type 4 (hSSTR-4).
Somatostatin receptor type 4, sequence (P31391 whole entry): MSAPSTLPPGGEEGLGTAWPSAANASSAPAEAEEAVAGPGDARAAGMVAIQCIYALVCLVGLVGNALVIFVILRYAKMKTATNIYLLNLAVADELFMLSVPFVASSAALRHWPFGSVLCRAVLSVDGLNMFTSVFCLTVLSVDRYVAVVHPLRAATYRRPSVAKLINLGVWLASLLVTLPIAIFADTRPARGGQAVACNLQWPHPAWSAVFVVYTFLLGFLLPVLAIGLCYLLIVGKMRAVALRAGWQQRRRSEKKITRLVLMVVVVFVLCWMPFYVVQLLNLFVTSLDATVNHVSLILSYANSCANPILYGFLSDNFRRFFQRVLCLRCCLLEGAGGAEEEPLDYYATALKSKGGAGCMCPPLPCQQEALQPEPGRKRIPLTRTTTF
The target in data set [12] is Somatostatin receptor type 5 (Homo sapiens, UniProt P35346). Description: In vitro binding affinity was evaluated against human Somatostatin receptor type 5 (hSSTR-5).
The nature of data set [13]: Area under curve after 1 mpk peroral administration to beagles. Type of data set: ADME, Canis lupus familiaris. To be noted: Beagle, dog, in vivo, po, 1 mg/kg.
Data set [14] can be described thus: Cmax value after 1 mpk peroral administration to beagles. It is filed as ADME, organism-based, Canis lupus familiaris. Further details: dose 1 mpk, route oral. The note with it: Beagle, dog, in vivo, po, 1 mg/kg.
Data set [15] in a line: Bioavailability after 1 mpk peroral administration to beagles. Type of data set: ADME, organism-based, Canis lupus familiaris. To be noted: Beagle, dog, in vivo, po, 1 mg/kg.
The species entered for a further data set is Rattus norvegicus. Description: Compound tested for the inhibition of growth hormone release was determined using primary cultures of rat anterior pituitary cells. To be noted: Pituitary gland cell. It is filed as functional, cell-based.

T1 sequence (P30874 whole entry): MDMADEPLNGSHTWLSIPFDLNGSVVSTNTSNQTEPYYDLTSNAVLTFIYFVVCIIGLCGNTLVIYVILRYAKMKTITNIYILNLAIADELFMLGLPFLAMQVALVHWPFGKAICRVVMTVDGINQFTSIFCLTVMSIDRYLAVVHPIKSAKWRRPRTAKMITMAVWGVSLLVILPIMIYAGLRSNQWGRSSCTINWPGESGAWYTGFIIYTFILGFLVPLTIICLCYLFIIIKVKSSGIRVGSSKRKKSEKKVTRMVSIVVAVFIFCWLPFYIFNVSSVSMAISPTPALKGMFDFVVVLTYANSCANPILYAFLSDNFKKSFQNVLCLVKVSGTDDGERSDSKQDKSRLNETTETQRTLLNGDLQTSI

The Ki is a measure of affinity in units of concentration, obtained from inhibition or displacement. `CN(C(=O)N1CCC2(CCc3ccccc32)CC1)[C@H](Cc1c[nH]c2ccccc12)C(=O)NCCCCCN` displayed a Ki in data set [1] of more than 10 nM.
On the same count and under the same terms, next, `COC(=O)[C@@H](CCCCN)NC(=O)[C@@H](Cc1c[nH]c2ccccc12)OC(=O)N1CCC2(CCc3ccccc32)CC1`: 10 nM; `NCCCCCNC(=O)[C@@H](Cc1c[nH]c2ccccc12)NC(=O)N1CCC2(CCc3ccccc32)CC1`: 10 nM.
Turning to `C[C@@H](c1c[nH]c2ccccc12)[C@H](C(=O)N[C@H](CCCCN)C(=O)OC(C)(C)C)N1CCN(c2cccc(-c3ccccc3)c2)C1=O`, the affinity in [2], expressed as Ki, was 80 nM.
For `C[C@@H](c1c[nH]c2ccccc12)[C@H](C(=O)N[C@H](CCCCN)C(=O)OC(C)(C)C)N1CCN(C2CCC(c3ccccc3)CC2)C1=O` (stereo partly drawn), the Ki turned out to be 40 nM in data set [3] and 6.3 nM in data set [4].
For orientation: bioavailability means dose-corrected exposure relative to a reference, in per cent. A low value points to poor availability. For `C[C@@H](c1c[nH]c2ccccc12)[C@H](C(=O)NC[C@H]1OC[C@H](N)CO1)N1CCN(Cc2ccc(Cl)c(Cl)c2)C1=O`, the bioavailability in data set [5] was 21%. This compound also returned a Ki in data set [2] of 7.3 nM.
Regarding `CC(CCN1CCN([C@@H](C(=O)N[C@H](CCCCN)C(=O)OC(C)(C)C)[C@@H](C)c2c[nH]c3ccccc23)C1=O)c1ccccc1` (stereo partly drawn), the Ki in data set [2] stood at 5.9 nM.
Turning to `COC(=O)[C@@H](CCCCN)NC(=O)[C@@H](Cc1c[nH]c2ccccc12)NC(=O)N1CCC2(CCc3ccccc32)CC1`, affinity in data set [1] was put at a Ki of 2 nM.
A word on the AUC: it is the area under the concentration-time curve, a measure of exposure. A higher AUC goes with more exposure. The Cmax is the maximum level reached in the sampled fluid or tissue. In data set [6], `C[C@@H](c1c[nH]c2ccccc12)[C@H](C(=O)N[C@H](CCCCN)C(=O)OC(C)(C)C)N1CCN(CCCc2ccccc2)C1=O` had an AUC of 837 ng·h/mL. The same compound had a bioavailability in [7] of 5%. Besides, in data set [8], the peak level (Cmax) was 350 ng/mL. Also, the Ki worked out at 712 nM in data set [9]; 1290 nM in data set [10]; 83 nM in data set [11]; 284 nM in data set [12]; 3.6 nM in [2].
As to `C[C@@H](c1c[nH]c2ccccc12)[C@@H](NC(=O)N(C)CCCc1ccccc1)C(=O)N[C@H](CCCCN)C(=O)OC(C)(C)C`, in data set [13], the area under the curve (AUC) was found to be 333 ng·h/mL. Also, the Cmax in data set [14] is 103 ng/mL. This compound registered a Ki in data set [2] of 2.2 nM.
In turn, `C[C@@H](c1c[nH]c2ccccc12)[C@H](C(=O)NC[C@H]1OC[C@H](N)CO1)N1CCN(CCCc2ccccc2)C1=O` had a Ki in data set [2] of 18 nM.
On the same count and under the same terms, the value for `C[C@@H](c1c[nH]c2ccccc12)[C@H](C(=O)N[C@H](CCCCN)C(=O)OC(C)(C)C)N1CCN(CCc2ccccc2)C1=O` was 47 nM.
`C[C@@H](c1c[nH]c2ccccc12)[C@H](C(=O)N[C@H](CCCCN)C(=O)OC(C)(C)C)N1CCN(Cc2ccccc2)C1=O` showed a Ki in data set [2] of 14 nM.
The same measure, in the same setting: next, `C[C@@H](c1c[nH]c2ccccc12)[C@H](C(=O)NC[C@H]1OC[C@H](N)CO1)N1CCN(CCC(c2ccccc2)c2ccccc2)C1=O`: 8.5 nM and 1.1 nM; `C[C@@H](c1c[nH]c2ccccc12)[C@H](C(=O)NC[C@H]1OC[C@H](N)CO1)N1CCN(CCc2cccc3ccccc23)C1=O`: 122 nM.
Still for that read-out and setting: the value for `C[C@@H](c1c[nH]c2ccccc12)[C@H](C(=O)NC[C@H]1OC[C@H](N)CO1)N1CCN(CCCn2c(O)nc3ccccc32)C1=O` was 40 nM.
In turn, `C[C@@H](c1c[nH]c2ccccc12)[C@H](C(=O)N[C@H](CCCCN)C(=O)OC(C)(C)C)N1CCN(Cc2ccc(C(F)(F)F)cc2)C1=O` showed a bioavailability in [5] of 3%. In data set [2], the inhibition constant (Ki) amounted to 1.3 nM.
Compound `CC(CCc1ccccc1)N1CCN([C@@H](C(=O)N[C@H](CCCCN)C(=O)OC(C)(C)C)[C@@H](C)c2c[nH]c3ccccc23)C1=O` (stereo partly drawn) came in with a Ki in data set [2] of 12 nM. This lies in the double-digit nanomolar range.
Same read-out and setting: the value for `C[C@@H](c1c[nH]c2ccccc12)[C@H](C(=O)N[C@H](CCCCN)C(=O)OC(C)(C)C)N1CCN(C2CCCN(c3ccccc3)C2)C1=O` (stereo partly drawn) was 1.4 nM.
As to `C[C@@H](c1c[nH]c2ccccc12)[C@H](C(=O)N(C)C[C@H]1OC[C@H](N)CO1)N1CCN(CCC(c2ccccc2)c2ccccc2)C1=O`, the inhibition constant Ki in data set [2] was 4.6 nM.
As to `C[C@@H](c1c[nH]c2ccccc12)[C@@H](NC(=O)NCCCc1ccccc1)C(=O)N[C@H](CCCCN)C(=O)OC(C)(C)C`, the AUC in [13] stood at 314 ng·h/mL. The compound further came in with a Cmax in data set [14] of 86 ng/mL. In [15], this compound had a bioavailability of 1%. In [2], this compound displayed a Ki of 1 nM.
As for `C[C@@H](c1c[nH]c2ccccc12)[C@H](C(=O)N(C)C[C@H]1OC[C@H](N)CO1)N1CCN(CCCc2ccccc2)C1=O`, the Ki in data set [2] came out at 11 nM.
The term IC50 denotes the point on the concentration scale where inhibition reaches its midpoint. Take `C[C@@H](c1c[nH]c2ccccc12)[C@H](C(=O)N(C)C[C@H]1OC[C@H](N)CO1)N1CCN(C2CCCN(c3ccccc3)C2)C1=O` (stereo partly drawn): the bioavailability in data set [5] is 15%. This compound also had an IC50 in the data set listed under Rattus norvegicus of 70 nM. Further, the Ki in data set [10] is more than 10000 nM; in [12], 1400 nM; in data set [3], 2.1 nM; in data set [4], 14 nM.
